Experimental data as given in patent US5030760A, “Tetrahydrophthalimides, and their production and use” (Sumitomo Chemical Company, Ltd., priority 1981, dated 1991).

Assays:
slender spikerush = assay: Test Example 7, flooded paddy pot dripping, herbicidal activity; type: in vivo, Eleocharis acicularis; conditions: 3 weeks; also: ranges in brackets are in %
Description: (§1) The application of the tetrahydrophthalimides (I) as herbicides will be illustratively shown in the following Examples wherein the phytotoxicity to cultivated plants and the herbicidal activity on weeds were evaluated as follows: the aerial parts of the test plants were cut off and weighed (fresh weight); the percentage of the fresh weight of the treated plant to that of the untreated plant was calculated with the latter fresh weight taken as 100; and the crop damage and the herbicidal activity were evaluated by the standard given in the table below. The rating values of phytotoxicity, 0 and 1, and those of herbicidal effect, 5 and 4, are generally regarded as satisfactory to protect cultivated plants and control weeds, respectively. The rating values in the paddy field test alone were calculated from the dry weight of the test plants.
(§2) Wagner's pots (1/5000 are) were filled with paddy field soil and water was poured therein to make a flooded condition. Rice seedlings of the 3-leaf stage were transplanted and tubers of slender spikerush and arrowhead and the seeds of barnyardgrass, monochoria and broad-leaved weed were sowed therein and grown for 5 days. When germination occurs, a designed amount of the test compound formulated into an emulsifiable concentrate according to Preparation Example 2 was applied to the pots by dripping. The test plants were grown for a further 3 weeks, and herbicidal activity and phytotoxicity were examined. The herbicidal activity was evaluated in figures ranging from 0 to 5. The phytotoxicity to the crop plants was also indicated on the same standard as that of the herbicidal activity.

rice plant = assay: Test Example 7, flooded paddy pot dripping, phytotoxicity to rice plant; type: in vivo; conditions: 3 weeks; also: ranges in brackets are in %
Description: as §1, §2

arrowhead = assay: Test Example 7, flooded paddy pot dripping, herbicidal activity; type: in vivo, Sagittaria pygmaea; conditions: 3 weeks; also: ranges in brackets are in %
Description: as §1, §2

broad-leaved weed = assay: as above; type: in vivo; conditions: 3 weeks; also: ranges in brackets are in %
Description: as §1, §2

barnyardgrass [1] = assay: as above; type: in vivo, Echinochloa crus-galli; conditions: 3 weeks
Description: as §1, §2

monochoria = assay: as above; type: in vivo, Monochoria vaginalis; conditions: 3 weeks; also: ranges in brackets are in %
Description: as §1, §2

velvetleaf [2] = assay: Test Example 3, soil surface spraying, herbicidal activity; type: in vivo, Abutilon theophrasti; conditions: 20 days; also: ranges in brackets are in %
Description: as §1
(§3) Plastic trays (35 cm×25 cm×15 cm) were filled with upland field soil, and the seeds of tall morningglory, velvetleaf and sicklepod and the seeds of corn were sown therein. A designed amount of the test compounds formulated into a wettable powder according to Preparation Example 1 was dispersed in water and applied by spraying at a spray volume of 5 liters per are to the whole surface of the soil. After the spraying, the test plants were placed in a greenhouse and grown for 20 days, and herbicidal activity and phytotoxicity were examined.

wild mustard = assay: Test Example 1, foliar treatment, herbicidal activity; type: in vivo, Brassica kaber; conditions: 3 weeks
Description: as §1
(§4) Plastic beakers (diameter, 10 cm; height, 10 cm) were filled with upland field soil, and the seeds of corn, barnyardgrass, wild oat, wild mustard and velvetleaf were separately sown in the beakers and grown for 2 weeks in the greenhouse. A designed amount of the test compound was sprayed to the foliage of the test plants by means of a small hand sprayer. After the spraying, the test plants were further grown for 3 weeks in the greenhouse, and herbicidal activity was examined. In this foliar treatment, the test compounds were formulated into an emulsifiable concentrate according to Preparation Example 2 and applied at a spray volume of 5 liters per are by dispersing it in water with the addition of a spreading agent.

velvetleaf [3] = assay: as above; type: in vivo, Abutilon theophrasti; conditions: 3 weeks
Description: as §1, §4

tall morningglory = assay: Test Example 3, soil surface spraying, herbicidal activity; type: in vivo, Ipomoea purpurea; conditions: 20 days; also: ranges in brackets are in %
Description: as §1, §3

corn [4] = assay: Test Example 1, foliar treatment, phytotoxicity to corn; type: in vivo; conditions: 3 weeks; also: ranges in brackets are in %
Description: as §1, §4

corn [5] = assay: Test Example 3, soil surface spraying, phytotoxicity to corn; type: in vivo; conditions: 20 days; also: ranges in brackets are in %
Description: as §1, §3

sicklepod = assay: Test Example 3, soil surface spraying, herbicidal activity; type: in vivo, Cassia obtusifolia; conditions: 20 days; also: ranges in brackets are in %
Description: as §1, §3

wild oat = assay: Test Example 1, foliar treatment, herbicidal activity; type: in vivo, Avena fatua; conditions: 3 weeks; also: ranges in brackets are in %
Description: as §1, §4

barnyardgrass [6] = assay: as above; type: in vivo, Echinochloa crus-galli; conditions: 3 weeks
Description: as §1, §4
For Herbicidal activity, Barnyardgrass in this document: ranges in brackets are in %.
For Herbicidal activity, Velvetleaf in this document: ranges in brackets are in %.

Structure (SMILES) | Herbicidal activity, Slender spikerush (slender spikerush; 1.25 g/are) | Herbicidal activity, Slender spikerush (slender spikerush; 2.5 g/are) | Herbicidal activity, Slender spikerush (slender spikerush; 5 g/are) | Phytotoxicity, Rice plant (rice plant; 1.25 g/are) | Phytotoxicity, Rice plant (rice plant; 2.5 g/are) | Phytotoxicity, Rice plant (rice plant; 5 g/are) | Herbicidal activity, Allowhead (arrowhead; 1.25 g/are) | Herbicidal activity, Allowhead (arrowhead; 2.5 g/are) | Herbicidal activity, Allowhead (arrowhead; 5 g/are) | Herbicidal activity, Broad-leaved weed (broad-leaved weed; 1.25 g/are) | Herbicidal activity, Broad-leaved weed (broad-leaved weed; 2.5 g/are) | Herbicidal activity, Broad-leaved weed (broad-leaved weed; 5 g/are) | Herbicidal activity, Barnyardgrass (barnyardgrass [1]; 1.25 g/are) | Herbicidal activity, Barnyardgrass (barnyardgrass [1]; 2.5 g/are) | Herbicidal activity, Barnyardgrass (barnyardgrass [1]; 5 g/are) | Herbicidal activity, Monochoria (monochoria; 1.25 g/are) | Herbicidal activity, Monochoria (monochoria; 2.5 g/are) | Herbicidal activity, Monochoria (monochoria; 5 g/are) | Herbicidal activity, Velvetleaf (velvetleaf [2]; 5 g/are) | Herbicidal activity, Velvetleaf (velvetleaf [2]; 10 g/are) | other results
CCCCCCCCOc1cc(N2C(=O)C3=C(CCCC3)C2=O)c(F)cc1Cl [Compound No. 10] | 3 (50-69) | 3 (50-69) | 4 (70-89) | 0 (0-9) | 0 (0-9) | 0 (0-9) | 3 (50-69) | 4 (70-89) | 4 (70-89) | 5 (90-100) | 5 (90-100) | 5 (90-100) | 3 (50-69) | 4 (70-89) | 5 (90-100) | 5 (90-100) | 5 (90-100) | 5 (90-100) |  |  | 
CCC(C)Oc1cc(N2C(=O)C3=C(CCCC3)C2=O)c(F)cc1Cl (stereo not drawn) [compound 4] |  |  |  |  |  |  |  |  |  |  |  |  |  |  |  |  |  |  | 5 (0) | 5 (0) | Herbicidal activity, Wild mustard (wild mustard; 1.25 g/are): 4 (1-10); Herbicidal activity, Wild mustard (wild mustard; 5 g/are): 5 (0); Herbicidal activity, Velvetleaf (velvetleaf [3]; 1.25 g/are): 5 (0); Herbicidal activity, Velvetleaf (velvetleaf [3]; 5 g/are): 5 (0); Herbicidal activity, Tall morningglory (tall morningglory; 5 g/are): 4 (1-10); Herbicidal activity, Tall morningglory (tall morningglory; 10 g/are): 5 (0); Phytotoxicity, Corn (corn [4]; 1.25 g/are): 0 (100); Phytotoxicity, Corn (corn [4]; 5 g/are): 1 (90-99); Phytotoxicity, Corn (corn [5]; 5 g/are): 0 (100); Phytotoxicity, Corn (corn [5]; 10 g/are): 0 (100); Herbicidal activity, Sicklepod (sicklepod; 5 g/are): 4 (1-10); Herbicidal activity, Sicklepod (sicklepod; 10 g/are): 4 (1-10); Herbicidal activity, Wild cat (wild oat; 1.25 g/are): 2 (21-40); Herbicidal activity, Wild cat (wild oat; 5 g/are): 5 (0); Herbicidal activity, Barnyardgrass (barnyardgrass [6]; 1.25 g/are): 1 (41-60); Herbicidal activity, Barnyardgrass (barnyardgrass [6]; 5 g/are): 5 (0)
CC(C)COc1cc(N2C(=O)C3=C(CCCC3)C2=O)c(F)cc1Cl [compound 5] |  |  |  |  |  |  |  |  |  |  |  |  |  |  |  |  |  |  | 5 (0) | 5 (0) | Herbicidal activity, Wild mustard (wild mustard; 1.25 g/are): 3 (11-20); Herbicidal activity, Wild mustard (wild mustard; 5 g/are): 5 (0); Herbicidal activity, Velvetleaf (velvetleaf [3]; 1.25 g/are): 5 (0); Herbicidal activity, Velvetleaf (velvetleaf [3]; 5 g/are): 5 (0); Herbicidal activity, Tall morningglory (tall morningglory; 5 g/are): 4 (1-10); Herbicidal activity, Tall morningglory (tall morningglory; 10 g/are): 5 (0); Phytotoxicity, Corn (corn [4]; 1.25 g/are): 0 (100); Phytotoxicity, Corn (corn [4]; 5 g/are): 0 (100); Phytotoxicity, Corn (corn [5]; 5 g/are): 0 (100); Phytotoxicity, Corn (corn [5]; 10 g/are): 0 (100); Herbicidal activity, Sicklepod (sicklepod; 5 g/are): 4 (1-10); Herbicidal activity, Sicklepod (sicklepod; 10 g/are): 4 (1-10); Herbicidal activity, Wild cat (wild oat; 1.25 g/are): 1 (41-60); Herbicidal activity, Wild cat (wild oat; 5 g/are): 4 (1-10); Herbicidal activity, Barnyardgrass (barnyardgrass [6]; 1.25 g/are): 2 (21-40); Herbicidal activity, Barnyardgrass (barnyardgrass [6]; 5 g/are): 4 (1-10)
CCCCOc1cc(N2C(=O)C3=C(CCCC3)C2=O)c(F)cc1Cl [compound 6] |  |  |  |  |  |  |  |  |  |  |  |  |  |  |  |  |  |  | 5 (0) | 5 (0) | Herbicidal activity, Wild mustard (wild mustard; 1.25 g/are): 4 (1-10); Herbicidal activity, Wild mustard (wild mustard; 5 g/are): 5 (0); Herbicidal activity, Velvetleaf (velvetleaf [3]; 1.25 g/are): 5 (0); Herbicidal activity, Velvetleaf (velvetleaf [3]; 5 g/are): 5 (0); Herbicidal activity, Tall morningglory (tall morningglory; 5 g/are): 4 (1-10); Herbicidal activity, Tall morningglory (tall morningglory; 10 g/are): 4 (1-10); Phytotoxicity, Corn (corn [4]; 1.25 g/are): 0 (100); Phytotoxicity, Corn (corn [4]; 5 g/are): 0 (100); Phytotoxicity, Corn (corn [5]; 5 g/are): 0 (100); Phytotoxicity, Corn (corn [5]; 10 g/are): 0 (100); Herbicidal activity, Sicklepod (sicklepod; 5 g/are): 4 (1-10); Herbicidal activity, Sicklepod (sicklepod; 10 g/are): 4 (1-10); Herbicidal activity, Wild cat (wild oat; 1.25 g/are): 1 (41-60); Herbicidal activity, Wild cat (wild oat; 5 g/are): 3 (11-20); Herbicidal activity, Barnyardgrass (barnyardgrass [6]; 1.25 g/are): 3 (11-20); Herbicidal activity, Barnyardgrass (barnyardgrass [6]; 5 g/are): 4 (1-10)
CCCCCCOc1cc(N2C(=O)C3=C(CCCC3)C2=O)c(F)cc1Cl [compound 8] | 4 (70-89) | 4 (70-89) | 5 (90-100) | 0 (0-9) | 0 (0-9) | 0 (0-9) | 4 (70-89) | 5 (90-100) | 5 (90-100) | 5 (90-100) | 5 (90-100) | 5 (90-100) | 4 (70-89) | 5 (90-100) | 5 (90-100) | 5 (90-100) | 5 (90-100) | 5 (90-100) |  |  | 
CCCCCCCOc1cc(N2C(=O)C3=C(CCCC3)C2=O)c(F)cc1Cl [compound 9] | 3 (50-69) | 4 (70-89) | 4 (70-89) | 0 (0-9) | 0 (0-9) | 0 (0-9) | 3 (50-69) | 4 (70-89) | 4 (70-89) | 5 (90-100) | 5 (90-100) | 5 (90-100) | 4 (70-89) | 4 (70-89) | 5 (90-100) | 5 (90-100) | 5 (90-100) | 5 (90-100) |  |  | 
CC(C)CCOc1cc(N2C(=O)C3=C(CCCC3)C2=O)c(F)cc1Cl [compound 11] | 4 (70-89) | 4 (70-89) | 5 (90-100) | 0 (0-9) | 0 (0-9) | 0 (0-9) | 3 (50-69) | 4 (70-89) | 5 (90-100) | 5 (90-100) | 5 (90-100) | 5 (90-100) | 4 (70-89) | 5 (90-100) | 5 (90-100) | 5 (90-100) | 5 (90-100) | 5 (90-100) |  |  | 
